Active and inactive are the calls of the source. No cut-off for these calls is given here.
Experiments:
[1] = Induction of superoxide radical generation in mouse N18TG2 cells assessed as CMH oxidation at 50 uM after 2 hrs by ESR spectroscopy (reference value: 0.40 +/- 0.05 pmol/min); assay type: functional
[2] = species on record: Bos taurus; assay: Induction of superoxide radical generation in bovine succinate-respiring submitochondrial particles assessed as oxidation of CPH at 36 uM after 2 mins by ESR spectroscopy in presence of rotenone; assay type: functional
[3] = species on record: Bos taurus; assay: Induction of superoxide radical generation in bovine NADH-respiring submitochondrial particles assessed as oxidation of CPH at 36 uM after 2 mins by ESR spectroscopy; assay type: functional
[4] = species on record: Bos taurus; assay: Induction of superoxide radical generation in bovine succinate-respiring submitochondrial particles assessed as oxidation of CPH at 36 uM after 2 mins by ESR spectroscopy; assay type: functional
[5] = Drug degradation in mouse N18TG2 cells assessed as alpha-TOH formation at 10 nmol after 24 hrs by HPLC analysis; assay type: ADME, cell-based; conditions: n18tg2, 24 h
[6] = system: Liver; assay: Drug degradation in rat liver homogenates assessed as alpha-TOH formation at 500 nmol after 4 hrs by HPLC analysis; assay type: ADME, tissue-based; conditions: tissue homogenate
[7] = system: Liver; assay: Drug degradation in denaturated rat liver homogenates assessed as compound recovery at 500 nmol after 4 hrs by HPLC analysis; assay type: ADME, tissue-based; conditions: tissue homogenate
[8] = system: Liver; assay: Drug degradation in rat liver homogenates at 500 nmol after 4 hrs by HPLC analysis; assay type: ADME, tissue-based; conditions: tissue homogenate
[9] = system: N18TG2; assay: Induction of superoxide radical generation in mouse N18TG2 cells assessed as CMH oxidation at 200 uM after 2 hrs by ESR spectroscopy relative to control; assay type: functional, cell-based
[10] = species on record: Bos taurus; assay: Induction of superoxide radical generation in bovine succinate-respiring submitochondrial particles assessed as oxidation of CPH at 900 uM after 2 mins by ESR spectroscopy in presence of superoxide dismutase relative to control; assay type: functional
[11] = species on record: Bos taurus; assay: Induction of superoxide radical generation in bovine NADH-respiring submitochondrial particles assessed as oxidation of CPH at 900 uM after 2 mins by ESR spectroscopy in presence of superoxide dismutase relative to control; assay type: functional
[12] = species on record: Bos taurus; assay: Induction of superoxide radical generation in bovine succinate-respiring submitochondrial particles assessed as oxidation of CPH after 2 mins by ESR spectroscopy relative to control; assay type: functional
[13] = species on record: Bos taurus; assay: Induction of superoxide radical generation in bovine NADH-respiring submitochondrial particles assessed as oxidation of CPH after 2 mins by ESR spectroscopy relative to control; assay type: functional
[14] = species on record: Bos taurus; assay: Inhibition of oxygen consumption in bovine succinate-respiring submitochondrial particles involving complexes 2,3,4 after 3 mins relative to control; assay type: functional
[15] = species on record: Bos taurus; assay: Inhibition of oxygen consumption in bovine NADH-respiring submitochondrial particles involving complexes 1,3,4 after 3 mins relative to control; assay type: functional
[16] = (§1) Inhibition of bovine mitochondrial electron transport protein complex 3 dUQH2:cytochrome c oxidoreductase activity by spectrophotometry; design: species or system Bos taurus
[17] = Inhibition of bovine mitochondrial electron transport protein complex 2 succinate:DCPIP oxidoreductase activity by spectrophotometry; design: species or system Bos taurus
[18] = species on record: Bos taurus; assay: Inhibition of bovine mitochondrial electron transport protein complex 1 NADH:dUQ oxidoreductase activity by spectrophotometry
[19] = system: N18TG2; assay: Cytotoxicity against mouse N18TG2 cells at 6.25 to 100 uM by MTT assay; assay type: functional, cell-based
[20] = system: HeLa; assay: Cytotoxicity against human HeLa cells at 100 to 200 uM by MTT assay; assay type: functional, cell-based
[21] = species on record: Bos taurus; assay: as §1
[22] = species on record: Bos taurus; assay: Induction of superoxide radical generation in bovine succinate-respiring submitochondrial particles assessed as oxidation of CPH at 50 uM after 2 mins by ESR spectroscopy; assay type: functional
[23] = species on record: Bos taurus; assay: Induction of superoxide radical generation in bovine succinate-respiring submitochondrial particles assessed as oxidation of CPH at 900 uM after 2 mins by ESR spectroscopy in presence of rotenone; assay type: functional
[24] = species on record: Bos taurus; assay: Induction of superoxide radical generation in bovine succinate-respiring submitochondrial particles assessed as oxidation of CPH at 900 uM after 2 mins by ESR spectroscopy; assay type: functional
[25] = species on record: Bos taurus; assay: Induction of superoxide radical generation in bovine NADH-respiring submitochondrial particles assessed as oxidation of CPH at 900 uM after 2 mins by ESR spectroscopy; assay type: functional

| Compound | Stability [5] | Stability [6] | Stability [7] | Stability [8] | Activity [9] | Activity [10] | Activity [11] | Activity [12] | Activity [13] | inhibition [14] | inhibition [15] | IC50 [16] [µM] | IC50 [17] [µM] | inhibition [18] | Activity [19] | Activity [20] | also measured |
| --- | --- | --- | --- | --- | --- | --- | --- | --- | --- | --- | --- | --- | --- | --- | --- | --- | --- |
| CCCCCC[C@H]1C(=O)O[C@H](C)[C@H](NC(=O)c2cccc(NC=O)c2O)C(=O)O[C@@H](C)[C@@H]1OC(=O)CC(C)C [ANTIMYCIN A] | – | – | – | – | – | – | – | – | – | – | – | – | – | – | – | – | Activity [1]: 1.2 pmol/min; Activity [2]: Active; Activity [3]: Active; Activity [4]: Active |
| Cc1c(C)c2c(c(C)c1NC(=O)CCC(=O)O)CC[C@@](C)(CCC[C@H](C)CCC[C@H](C)CCCC(C)C)O2 | Stable | Stable | Stable | Unstable | inactive | inactive | inactive | inactive | inactive | Dose-dependent effect | Dose-dependent effect | 137 | 106 | inactive | Active | inactive | – |
| CC(=O)Oc1c(C)c(C)c2c(c1C)CC[C@@](C)(CCC[C@H](C)CCC[C@H](C)CCCC(C)C)O2 | – | – | – | – | inactive | – | – | inactive | inactive | – | – | – | > 1000 | – | – | – | Drug degradation [5]: 100%; inhibition [21]: Active |
| C=C(C)[C@H]1Cc2c(ccc3c2O[C@@H]2COc4cc(OC)c(OC)cc4[C@@H]2C3=O)O1 | – | – | – | – | – | – | – | – | – | – | – | – | – | – | – | – | Activity [22]: Active |
| Cc1c(C)c2c(c(C)c1OC(=O)CCC(=O)O)CC[C@@](C)(CCC[C@H](C)CCC[C@H](C)CCCC(C)C)O2 [(+)-ALPHA-TOCOPHERYL SUCCINATE] | Unstable | Unstable | Stable | Unstable | Active | inactive | inactive | Active | Active | Dose-dependent effect | Dose-dependent effect | 315 | 42 | inactive | Active | inactive | Activity [23]: Active; Activity [24]: Active; Activity [25]: Active |

From ChEMBL document CHEMBL3102818, “Tocopheramine succinate and tocopheryl succinate: mechanism of mitochondrial inhibition and superoxide radical production” (Bioorg Med Chem, 2014)
